Measurements as given in US20150135343A1, “GTP Sensors” (The Board of Regents of the University of Texas System, priority 2012, published 2015).

Assays:
[1] = biological target: T1, AF/FA GTP sensor (mAmetrine 1.1 and E. coli FeoB-cpYFP fusion) 11A variant 1217, GNSGKST (SEQ ID NO: 9) (Escherichia coli, UniProt P33650, P12G/T17S); assay: GTP binding analysis, fluorescence titration, sensor 1217
T1 construct: modified pET32, His-tag/NiNTA, E. coli BL21(DE3)
Experimental: (§1) Expression and purification: The FA/AF11A protein construct in a modified pET32 vector was used to transform BL21 (DE3) cells. Protein expression was induced with IPTG at a final concentration of 1 mM when the cell OD600 reached 0.6-0.8. Cells were grown for a further 12-14 hrs at 30° C. overnight. Cells were harvested in the morning, suspended in 50 mM TrisHCl, pH 8.3, 2 mM NaCl, 0.1% (v/v) Tween-20, 10 mM imidazole, 1 mM PMSF (lysis buffer), and lysed by sonication. Cell debris was removed by spinning at 17000 rpm for 30 minutes at 4° C. in a Sorvall RC-5C centrifuge equipped with a SS-34 rotor. The lysate, which is bright yellow, was applied to a NiNTA column equilibrated with the same lysis buffer. The loaded NiNTA column was washed with 5 volumes of the lysis buffer followed by 2-volumes of 50 mM TrisHCl, pH8.3, 400 mM NaCl, 50 mM imidazole. Then the protein was eluted in 2 volumes of 50 mM TrisHCl, pH 7.5, 100 mM NaCl, 300 mM imidazole. […] Protein concentration was determined with a BCA assay-kit from Invitrogen using bovine serum albumin for the calibration curve.
(§2) Fluorescent emission spectra of FA/AF11A were obtained at ˜1 μM in binding buffer and 3.0 ml in a quartz cuvette. […] Titrations with GTP, GDP, and ATP were carried out in a BioTeK plate reader on 96-well fluorescence plates from Whatman. […]

[2] = biological target: T2, AF/FA GTP sensor (mAmetrine 1.1 and E. coli FeoB-cpYFP fusion) 11A variant Triple, GNAGKST (SEQ ID NO: 10) (Escherichia coli, UniProt P33650, P12G/S14A/T17S); assay: GTP binding analysis, fluorescence titration, sensor Triple
T2 construct: modified pET32, His-tag/NiNTA, E. coli BL21(DE3)
Experimental: as §1, §2

[3] = biological target: T3, AF/FA GTP sensor (mAmetrine 1.1 and E. coli FeoB-cpYFP fusion) 11A variant 1214, P12G+S14A, GNAGKTT (SEQ ID NO: 8) (Escherichia coli, UniProt P33650, P12G/S14A); assay: GTP binding analysis, fluorescence titration, sensor 1214
T3 construct: modified pET32, His-tag/NiNTA, E. coli BL21(DE3)
Experimental: as §1, §2

[4] = biological target: T4, AF/FA GTP sensor (mAmetrine 1.1 and E. coli FeoB-cpYFP fusion) 11A variant 12, P12G, GNSGKTT (SEQ ID NO: 7) (Escherichia coli, UniProt P33650, P12G); assay: GTP binding analysis, fluorescence titration, sensor 12
T4 construct: modified pET32, His-tag/NiNTA, E. coli BL21(DE3)
Experimental: as §1, §2

[5] = test system: FeoB, G-protein domain of FeoB protein from Escherichia coli, SEQ ID NO:3; conditions: cited from earlier work
[6] = test system: HEK293 cells; assay: In vivo validation: ratiometric imaging of transfected HEK293 cells with or without MPA; format: cell-based; conditions: 20 μM MPA, HEK293 cells with AF-Triple sensor
Experimental: (§3) AF/FA GTP sensors were subcloned into a pGW1 mammalian cell expression vector with a cytomegalovirus (CMV) promoter. HEK293 cells were transfected with the plasmid DNA using the GenJet (SignaGen) transfection reagent according to the manufacturer's instructions. Cells were allowed to grow for ˜24 hrs before being treated with mycophenolic acid (MPA), which inhibits GTP synthesis. Cells were imaged 20 hrs after drug administration. All cell cultures were carried out with DMEM containing 10% FBS and penicillin/streptomycin and grown at 37° C. in an atmosphere with 5% CO2. Passage number of cells was less than 30 for all experiments.
(§4) Imaging: Cells were imaged in a LabTek 8-chamber 1.5 coverslip-bottom culture-cum-imaging wells. Nikon Eclipse inverted epifluorescence microscope with Sedat Quad 89000 (Chroma Tech) filter along with Sutter instruments automated filter wheel controls was used for all imaging purposes. To ensure adequate signal, 2×2 binning was used. […]
(§5) Images were obtained individually without using the Nikon NIS software ratiometric collection mode. All image quantitative analyses were carried out with the public domain ImageJ (http://rsbweb.nih.gov/ij/) in conjunction with MS Excel and Origin 7. […] Then the ratios of the two intensities were calculated along with the relevant statistics.

[7] = test system: HEK293 cells transfected with AF-AAA GTP sensor; assay: MPA treatment of HEK293 cells expressing AF-AAA sensor, ratiometric imaging; format: cell-based; conditions: 20 μM MPA, 20 hrs; GTP-insensitive control sensor
Experimental: as §3, §4, §5

[8] = test system: HEK293 cells transfected with AF-Triple GTP sensor; assay: MPA treatment of HEK293 cells expressing AF-Triple sensor, ratiometric imaging; format: cell-based; conditions: 20 μM MPA
Experimental: as §3, §4, §5

[9] = biological target: T5, 5a5a-GTP sensor (E. coli FeoB-cpYFP fusion), 5a5a-WT, SEQ ID NO:14 (Escherichia coli, UniProt P33650, E42P/INS38[…]); assay: Effective dissociation constant (Keff) determination, 5a5a-WT; format: binding; conditions: FIG. 7 and FIG. 8
T5 construct: made in house
Source text: DNA encoding a cpYFP was inserted into the DNA encoding residues 35-40 of the FeoB G-protein domain (residues 1-260). Six insertion sites—spaced one codon apart—and 4 combinations of linker lengths between the N- and C-termini of the cpYFP and FeoB genes were used to construct 24 different fusion proteins. Nomenclature followed the form “FY1a-1a”, were the number designates the cpYFP insertion site, with “1” corresponding to insertion after FeoB residue 35 and “6” to insertion after residue 40, and where an “a” after the number indicates the presence of a ser-ala-gly or gly-thr linker at, respectively, the N- or C-terminus of the cpYFP.
The fluorescence from the GTP insensitive protein provided a way to normalize the GTP-sensitive fluorescent signal. […] The ratio of the fluorescence at these two excitation wavelengths is therefore internally normalized for changes in sensor expression levels. In addition, using a single FP provides certain advantages over a 2-FP sensor: (1.) A single FP sensor still generates a ratiometric signal because the binding of GTP causes a […] in fluorescence when excited at longer wavelengths (˜500 nm) but a […] in when excited at shorter (˜400 nm) wavelengths. […] (3.) The change in fluorescence ratio varies from 2-6 fold, depending on pH. […]

SMILES: Nc1nc2c(ncn2[C@@H]2O[C@H](COP(=O)(O)OP(=O)(O)O)[C@@H](O)[C@H]2O)c(=O)[nH]1 [GDP]
- Kd [1]: ~650 µM
- Kd [2]: ~1000 µM
- Kd [3]: 525 µM
- Kd [4]: 382 µM
- rate of GDP release ([5]; 35° C., too fast to measure by stop-flow methods, estimated): > 1000 s⁻¹

SMILES: COc1c(C)c2c(c(O)c1C/C=C(\C)CCC(=O)O)C(=O)OC2 [MPA, mycophenolic acid]
- cpYFP (green) signal of cells vs untreated [6]: brighter green hue
- effect of MPA treatment on ratiometric signal [7]: no effect
- effect of MPA treatment on ratiometric signal (distribution of ratio and average value) ([8]; 20 hrs, p-value of 0.005): distinct difference in the distribution of the ratio as well as the average value
- GTP-sensitive signal (cpYFP green) after MPA treatment ([8]; signal inversely related to GTP concentration): brighter green hue than those untreated

SMILES: Nc1nc2c(ncn2[C@H]2C[C@H](O)[C@@H](COP(=O)(O)OP(=O)(O)OP(=O)(O)O)O2)c(=O)[nH]1 [dGTP]
- binding of dGTP relative to GTP [9]: as well as, if not slightly better than GTP itself

SMILES: Nc1nc2c(ncn2[C@@H]2O[C@H](COP(=O)(O)OP(=O)(O)OP(=O)(O)O)[C@@H](O)[C@H]2O)c(=O)[nH]1 [GTP, guanosine triphosphate]
- Kd [1]: 275 µM
- Kd [2]: 517 µM
- Kd [3]: 177 µM
- Kd [4]: 85 µM
- off-rate (GTP) ([5]; 35° C.): 12 s⁻¹
- on-rate for GTP ([5]; 35° C.): 800000 M⁻¹ s⁻¹
- rate of GTP hydrolysis [5]: 0.0015 s⁻¹
- rate of GTP hydrolysis, fold slower than the rate of GTP release ([5]; ratio): about 5000 fold
